The assay deals with IRAK4 kinase (Homo sapiens (Human), UniProt Q9NWZ3). Briefly: IRAK4 kinase activity inhibition assay. Conditions: ADP-Glo kinase assay, 10 μM ATP, MBP substrate. The assay is classed as biochemical. As for the experimental part: IRAK4 kinase (purchased from Life Technologies, Cat. No.: PR5612U) was diluted to 2 folds of the final concentration (the final concentration is […]) with reaction buffer (40 mM Tris-HC1, pH 7.5; 20 mM MgCl2; 0.1 mg/mL BSA; 1 mM DTT), and added to a 384-well plate at 5 μL/well. The test drugs were 10-fold serial diluted from 10 μM to set six concentration points and added to the test wells of the 384-well plate at 2.5 μL/well. After incubation for 10 min at 25° C., 10 μM of ATP and 0.1 μg/μL of an enzyme reaction substrate, myelin basic protein MBP (purchased from Signal Chem, Cat. No.: M42-51N) were added at 2.5 μL/well, and reacted at 25° C. for 60 minutes. After the reaction was completed, the kinase activity assay was performed using the ADP-Glo™ kinase assay kit (purchased from Promega, Cat. No.: V9102) according to the manufacture's instruction, i.e., 10 μL of ADP-Glo reaction reagent was first added and reacted at 25° C. for 40 minutes, 10 μL of the reaction mixture was taken and mixed with 10 μL of ADP-Glo detection reagent, and reacted at 25° C. for 30 minutes. The kinase activity was then detected, and the IC50 values of the test drugs were calculated.
Sequence of IRAK4 kinase (Q9NWZ3 whole entry): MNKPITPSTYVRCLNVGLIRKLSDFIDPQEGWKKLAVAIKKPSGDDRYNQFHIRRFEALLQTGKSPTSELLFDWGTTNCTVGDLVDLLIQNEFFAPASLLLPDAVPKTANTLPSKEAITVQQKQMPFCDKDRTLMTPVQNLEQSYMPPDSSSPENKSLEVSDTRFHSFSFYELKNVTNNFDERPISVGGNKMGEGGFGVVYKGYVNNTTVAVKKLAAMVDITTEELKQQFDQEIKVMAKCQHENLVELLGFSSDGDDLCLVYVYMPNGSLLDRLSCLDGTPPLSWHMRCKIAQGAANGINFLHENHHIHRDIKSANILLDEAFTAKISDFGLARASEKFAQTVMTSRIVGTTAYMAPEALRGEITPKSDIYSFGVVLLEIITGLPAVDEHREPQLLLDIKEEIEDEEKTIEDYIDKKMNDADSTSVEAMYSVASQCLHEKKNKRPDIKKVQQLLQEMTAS
In general terms: In ADP-Glo the light output rises with the ADP produced.

Take `COCCOc1nc(Nc2cc(C)ns2)nc2ccn(-c3cnn(C)c3)c12` [Example 55]: the IC50 – broadly, the concentration at which inhibition is half-maximal – is no more than 100 nM.
`CCNC(=O)c1cc(Nc2nc(O[C@@H]3CCOC3)c3c(ccn3-c3cnn(C)c3)n2)cs1` [Example 158] displayed an IC50 of no more than 100 nM.
`Cn1cc(-n2ccc3nc(Nc4ccc(C(=O)N5CCOCC5)cc4)nc(O[C@H]4CCOC4)c32)cn1` [Example 119] came in with an IC50 of 100 to 1000 nM.
Under `CCNC(=O)c1csc(Nc2nc(OC(C)C)c3c(ccn3-c3cnn(C)c3)n2)c1` [Example 127] stands no more than 100 nM; under `Cc1cc(Nc2nc(O[C@H]3CCOC3)c3c(ccn3-c3cnn(C)c3)n2)cs1` [Example 82], 100 to 1000 nM; under `Cc1cc(Nc2nc(OC3CCSCC3)c3c(ccn3-c3cnn(C)c3)n2)sn1` [Example 75], 100 to 1000 nM.
Under `Cn1cc(-n2ccc3nc(Nc4cc(C(=O)N5CCS(=O)(=O)CC5)cs4)nc(O[C@H]4CCOC4)c32)cn1` [Example 154] stands no more than 100 nM.
The result for `Cc1cc(Nc2nc(OC3CCOCC3)c3c(ccn3-c3ccccc3)n2)sn1` [Example 92] reads 100 to 1000 nM; that for `COC1CCC(Oc2nc(Nc3cc(C)ns3)nc3ccn(-c4cnn(C)c4)c23)CC1` (stereo not shown) [Example 68], 100 to 1000 nM; that for `CNC(=O)c1csc(Nc2nc(O[C@H]3CCOC3)c3c(ccn3-c3ccoc3)n2)c1` [Example 126], no more than 100 nM.
In turn, `Cc1cc(Nc2nc(NC(C)C)c3c(ccn3-c3ccnc(O)c3)n2)sn1` [Example 41] showed an IC50 of 100 to 1000 nM.
The result for `Cn1cc(-n2ccc3nc(Nc4ccc[nH]4)nc(O[C@H]4CCOC4)c32)cn1` [Example 77] reads no more than 100 nM.
The result for `Cn1cc(-n2ccc3nc(Nc4cccs4)nc(O[C@H]4CCOC4)c32)cn1` [Example 78] reads no more than 100 nM; that for `COCCn1cc(-n2ccc3nc(Nc4cc(C)ns4)nc(OC4CCOCC4)c32)cn1` [Example 91], 100 to 1000 nM; that for `Cc1cc(Nc2nc(NC(C)C)c3c(ccn3-c3cccc4c3cnn4C)n2)sn1` [Example 44], 1000 to 10000 nM.
Turning to `Cn1cc(-n2ccc3nc(Nc4csc5ccccc45)nc(O[C@H]4CCOC4)c32)cn1` [Example 85], the IC50 was 1000 to 10000 nM.
Under `Cn1cc(-n2ccc3nc(Nc4ccc5c(c4)C(=O)NC5)nc(O[C@H]4CCOC4)c32)cn1` [Example 122] stands 100 to 1000 nM.
With `Cc1cc(Nc2nc(OC(C)C)c3c(ccn3-c3cnn(C)c3)n2)sn1` [Example 54, [4-isopropoxy-5-(1-methyl-1H-pyrazol-4-yl)-5H-pyrrolo[3,2-d]pyrimidin-2-yl]-(3-methylisothiazol-5-yl)amine], the IC50 was no more than 100 nM.
The result for `Cc1cc(Nc2nc(NCCCN3CCOCC3)c3c(ccn3-c3cnn(C)c3)n2)sn1` [Example 11] reads 100 to 1000 nM.
Under `Cn1cc(-n2ccc3nc(Nc4csc(C(=O)NCCF)c4)nc(O[C@H]4CCOC4)c32)cn1` [Example 161] stands no more than 100 nM; under `COc1cc(-n2ccc3nc(Nc4cc(C)ns4)nc(OC4CCOCC4)c32)ccn1` [Example 101], 100 to 1000 nM.
Under `CCNC(=O)c1csc(Nc2nc(OC3CCCCC3)c3c(ccn3-c3cnn(C)c3)n2)c1` [Example 129] stands 100 to 1000 nM.
With `CCNC(=O)c1cc(Nc2nc(O[C@H]3CCOC3)c3c(ccn3-c3cnn(C)c3)n2)cs1` [Example 160], the IC50 is no more than 100 nM.
The result for `Cc1cc(Nc2nc(NC3CC(O)C3)c3c(ccn3-c3cnn(C)c3)n2)sn1` (stereo not shown) [Example 13] reads no more than 100 nM; that for `Cc1cc(Nc2nc(NC3CCOCC3)c3c(ccn3-c3ccncc3)n2)sn1` [Example 40], 100 to 1000 nM; that for `COc1ccccc1-n1ccc2nc(Nc3cc(C)ns3)nc(OC3CCOCC3)c21` [Example 93], 1000 to 10000 nM.
Under `CN1CCC(CNC(=O)c2csc(Nc3nc(O[C@H]4CCOC4)c4c(ccn4-c4cnn(C)c4)n3)c2)CC1` [Example 141] stands no more than 100 nM; under `Cn1cc(-n2ccc3nc(Nc4cnn(C5CCCCC5)c4)nc(O[C@H]4CCOC4)c32)cn1` [Example 109], 100 to 1000 nM.
The result for `CN1CCC(NC(=O)c2cc(Nc3nc(O[C@H]4CCOC4)c4c(ccn4-c4cnn(C)c4)n3)cs2)CC1` [Example 162] reads no more than 100 nM; that for `Cc1cc(Nc2nc(OC3CCOCC3)c3c(ccn3-c3ccncc3)n2)sn1` [Example 97], 100 to 1000 nM.
`CN1CCC(n2cc(Nc3nc(O[C@H]4CCOC4)c4c(ccn4-c4cnn(C)c4)n3)cn2)CC1` [Example 111] came in with an IC50 of no more than 100 nM.
The compound `Cn1cc(-n2ccc3nc(Nc4cc(C(=O)N5CCCCC5)cs4)nc(O[C@H]4CCOC4)c32)cn1` [Example 150] returned an IC50 of no more than 100 nM.
Under `CC(=O)NCCNc1nc(Nc2cc(C)ns2)nc2ccn(-c3cnn(C)c3)c12` [Example 8] stands 100 to 1000 nM; under `CC(=O)N1CCC(Oc2nc(Nc3cc(C)ns3)nc3ccn(-c4cnn(C)c4)c23)CC1` [Example 73], 100 to 1000 nM.
As to `COCC(C)Oc1nc(Nc2cc(C)ns2)nc2ccn(-c3cnn(C)c3)c12` (stereo not shown) [Example 56], the IC50 lay within 100 to 1000 nM.
Compound `CN1Cc2cc(Nc3nc(O[C@H]4CCOC4)c4c(ccn4-c4cnn(C)c4)n3)ccc2C1=O` [Example 121] showed an IC50 of no more than 100 nM.
The result for `Cn1cc(-n2ccc3nc(Nc4cnn(-c5ccccc5)c4)nc(O[C@H]4CCOC4)c32)cn1` [Example 112] reads 100 to 1000 nM; that for `Cc1cc(Nc2nc(O[C@H]3CCOC3)c3c(ccn3-c3ccoc3)n2)sn1` [Example 87], no more than 100 nM.
The result for `Cc1cc(Nc2nc(NC3CCOCC3)c3c(ccn3-c3cnn(C)c3)n2)sn1` [Example 29] reads no more than 100 nM; that for `Cc1cc(Nc2nc(OC3CCOCC3)c3c(ccn3-c3ccsc3)n2)sn1` [Example 89], 100 to 1000 nM.
The result for `Cc1cc(Nc2nc(N[C@H]3CC[C@H](O)CC3)c3c(ccn3-c3cccnc3)n2)sn1` [Example 38] reads no more than 100 nM; that for `Cc1cc(Nc2nc(N[C@H]3CC[C@H](O)CC3)c3c(ccn3-c3cnn(C)c3)n2)sn1` [Example 1, trans-4-[2-(3-methylisothiazol-5-ylamino)-5-(1-methyl-1H-pyrazol-4-yl)-5H-pyrrolo[3,2-d]pyrimidin-4-ylamino]cyclohexanol], no more than 100 nM.
Consider `Cc1cc(Nc2nc(N[C@H]3C[C@H](N4CCCCC4)C3)c3c(ccn3-c3cnn(C)c3)n2)sn1` [Example 16], for which the IC50 fell in the range of 100 to 1000 nM.
Under `Cc1cc(Nc2nc(OC3CCOCC3)c3c(ccn3-c3ccn(C)c3)n2)sn1` [Example 86] stands 100 to 1000 nM; under `Cc1cc(Nc2nc(N[C@H]3CC[C@H](O)CC3)c3c(ccn3-c3ccc(F)cc3)n2)sn1` [Example 34], 100 to 1000 nM; under `Cc1cc(Nc2nc(OC3CCN(C)CC3)c3c(ccn3-c3cnn(C)c3)n2)sn1` [Example 72], 100 to 1000 nM.
For the compound `Cc1cc(Nc2nc(OC3CCC3)c3c(ccn3-c3cnn(C)c3)n2)sn1` [Example 60], the IC50 lay within 100 to 1000 nM.
Under `COc1cc(-n2ccc3nc(Nc4cc(C)ns4)nc(NC(C)C)c32)ccn1` [Example 42] stands 100 to 1000 nM.
As to `Cc1cc(Nc2nc(N[C@H]3C[C@@H](N4CCCCC4)C3)c3c(ccn3-c3cnn(C)c3)n2)sn1` [Example 15], the IC50 was 100 to 1000 nM.
The result for `Cn1cc(-n2ccc3nc(Nc4cnn(-c5cccnc5)c4)nc(O[C@H]4CCOC4)c32)cn1` [Example 114] reads no more than 100 nM.
Under `Cc1cc(Nc2nc(NC(C)C)c3c(ccn3-c3ccc(N)nc3)n2)sn1` [Example 39] stands 1000 to 10000 nM.
Under `CCNC(=O)c1csc(Nc2nc(NC3CCOCC3)c3c(ccn3-c3cnn(C)c3)n2)c1` [Example 49] stands no more than 100 nM; under `CNC(=O)c1cc(Nc2nc(OCCOC)c3c(ccn3-c3cnn(C)c3)n2)cs1` [Example 155], no more than 100 nM; under `Cc1cc(Nc2nc(NC(C)C)c3c(ccn3-c3cccc(S(C)(=O)=O)c3)n2)sn1` [Example 36], 1000 to 10000 nM.
`Cn1cc(-n2ccc3nc(Nc4cnn(C5CCOCC5)c4)nc(O[C@H]4CCOC4)c32)cn1` [Example 110] displayed an IC50 of no more than 100 nM.
Under `CCNC(=O)c1cc(Nc2nc(OCCOC)c3c(ccn3-c3cnn(C)c3)n2)cs1` [Example 156] stands no more than 100 nM; under `Cc1cc(Nc2nc(NC(C)C)c3c(ccn3-c3ccc4c(c3)OCO4)n2)sn1` [Example 43], 100 to 1000 nM.
Under `Cn1cc(-n2ccc3nc(Nc4cc(C(=O)NC5CCCCC5)cs4)nc(O[C@H]4CCOC4)c32)cn1` [Example 144] stands 100 to 1000 nM; under `CN1CCC(NC(=O)c2csc(Nc3nc(O[C@H]4CCOC4)c4c(ccn4-c4cnn(C)c4)n3)c2)CC1` [Example 145], no more than 100 nM.
The result for `Cc1cc(Nc2nc(N[C@H]3CC[C@@H](O)C3)c3c(ccn3-c3cnn(C)c3)n2)sn1` [Example 18] reads no more than 100 nM; that for `CCn1cc(-n2ccc3nc(Nc4cc(C)ns4)nc(OC4CCOCC4)c32)cn1` [Example 90], 100 to 1000 nM; that for `COCCCOc1nc(Nc2cc(C)ns2)nc2ccn(-c3cnn(C)c3)c12` [Example 57], 100 to 1000 nM.
Consider `Cn1cc(-n2ccc3nc(Nc4cc(C(=O)N5CCOCC5)cs4)nc(O[C@H]4CCOC4)c32)cn1` [Example 152], for which the IC50 was no more than 100 nM.
The compound `CCNC(=O)c1csc(Nc2nc(O[C@@H]3CCOC3)c3c(ccn3-c3cnn(C)c3)n2)c1` [Example 131] yielded an IC50 of no more than 100 nM.

Values taken from patent US10562902B2, “IRAK4 inhibitor and use thereof” (BEIJING HANMI PHARMACEUTICAL CO., LTD., priority 2015, dated 2020).
